This note sets out measurements from patent publication US20240092784A1, “CONDENSED HETEROCYCLIC COMPOUND” (NISSAN CHEMICAL CORPORATION, priority 2020, published 2024).

Where a name gives a salt, the structure may show the parent alone.

human SPR, sequence (P35270 whole entry): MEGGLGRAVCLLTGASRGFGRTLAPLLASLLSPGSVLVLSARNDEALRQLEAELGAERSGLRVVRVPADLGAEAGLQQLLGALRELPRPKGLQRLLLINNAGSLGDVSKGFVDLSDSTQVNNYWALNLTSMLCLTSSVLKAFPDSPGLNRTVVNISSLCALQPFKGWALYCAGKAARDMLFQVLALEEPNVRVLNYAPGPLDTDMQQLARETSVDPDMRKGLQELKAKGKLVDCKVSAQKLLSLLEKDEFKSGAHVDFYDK

The first experiment addresses human SPR (Homo sapiens (Human), UniProt P35270). Nature of the experiment: Evaluation Example 2: Measurement of human SPR inhibitory activity (seven concentrations, sepiapterin absorbance at 420 nm). It counts as biochemical. Particulars: Evaluation Example 2, seven concentrations 0.14 nM to 100 nM, 240 minutes at room temperature, read-out: IC50. An outline of the steps:
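Reactions ran 240 min at room temperature in 100 mM Tris-HCl pH 7.5 with 0.01% BSA. They contained tag-cleaved, E. coli-expressed full-length human SPR (diluted to 150 ng/mL), seven compound concentrations from 0.14 to 100 nM, and sepiapterin/NADPH added as a 120 μM/160 μM solution. Inhibition was calculated from sepiapterin absorbance at 420 nm.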
For the molecule `CC(C)Cn1c(=O)c(C(=O)NC2CC2)c(O)n2ncc(/C=C/C(=O)N3CCC(OC(F)(F)F)CC3)c12` [compound 465, (E)-N-Cyclopropyl-7-hydroxy-4-isobutyl-5-oxo-3-(3-oxo-3-(4-(trifluoromethoxy)piperidin-1-yl)prop-1-en-1-yl)-4,5-dihydropyrazolo[1,5-a]pyrimidine-6-carboxamide], the IC50 is 1.76 nM.
As to `CC(C)(C)Cn1c(=O)c(C(=O)NC2CC2)c(O)n2nc(C#N)cc12` [Synthesis Example 279, 2-Cyano-N-cyclopropyl-7-hydroxy-4-neopentyl-5-oxo-4,5-dihydropyrazolo[1,5-a]pyrimidine-6-carboxamide], the IC50 was found to be 1.76 nM.
On the same count and under the same terms, then `COC[C@@H]1COCCN1C(=O)/C=C/c1cnn2c(O)c(C(=O)NC3CC3)c(=O)n(CC3(F)CC3)c12` [Synthesis Example 383, (R,E)-N-Cyclopropyl-4-((1-fluorocyclopropyl)methyl)-7-hydroxy-3-(3-(3-(methoxymethyl)morpholino)-3-oxoprop-1-en-1-yl)-5-oxo-4,5-dihydropyrazolo[1,5-a]pyrimidine-6-carboxamide], with 0.82 nM; and `Cc1nn2c(O)c(C(=O)NC3CC3)c(=O)n(CC(C)C)c2c1/C=C/C(=O)N1CCOC[C@H]1C` [compound 570, (R,E)-N-Cyclopropyl-7-hydroxy-4-isobutyl-2-methyl-3-(3-(3-methylmorpholino)-3-oxoprop-1-en-1-yl)-5-oxo-4,5-dihydropyrazolo[1,5-a]pyrimidine-6-carboxamide], with 0.75 nM.
For the molecule `CC[C@@H]1CCCN1C(=O)/C=C/c1cnn2c(O)c(C(=O)NC3CC3)c(=O)n(CC(C)C)c12` [compound 562, (R,E)-N-Cyclopropyl-3-(3-(2-ethylpyrrolidin-1-yl)-3-oxoprop-1-en-1-yl)-7-hydroxy-4-isobutyl-5-oxo-4,5-dihydropyrazolo[1,5-a]pyrimidine-6-carboxamide], the IC50 worked out at 1.31 nM.
With `CNc1ncccc1-c1cc2n(CC(C)(C)C)c(=O)c(C(=O)NC3CC3)c(O)n2n1` [Synthesis Example 309, N-Cyclopropyl-7-hydroxy-2-(2-(methylamino)pyridin-3-yl)-4-neopentyl-5-oxo-4,5-dihydropyrazolo[1,5-a]pyrimidine-6-carboxamide], the IC50 stood at 22.9 nM.
Regarding `CC(C)Cn1c(=O)c(C(=O)NC2CC2)c(O)n2nc3c(c12)CCC(=O)N3` [Synthesis Example 404, N-Cyclopropyl-4-hydroxy-1-isobutyl-2,8-dioxo-1,2,7,8,9,10-hexahydropyrido[2′,3′:3,4]pyrazolo[1,5-a]pyrimidine-3-carboxamide], the IC50 is 0.63 nM.
On to `CC(C)Cn1c(=O)c(C(=O)NC2CC2)c(O)n2ncc(CCc3ccc(C(F)(F)F)nc3)c12` [Synthesis Example 251, N-Cyclopropyl-7-hydroxy-4-isobutyl-5-oxo-3-(2-(6-(trifluoromethyl)pyridin-3-yl)ethyl)-4,5-dihydropyrazolo[1,5-a]pyrimidine-6-carboxamide], for which the IC50 turned out to be 1.74 nM.
On to `CC(C)(C)Cn1c(=O)c(C(=O)NC2CC2)c(O)n2nc(Nc3ccnc(C(N)=O)n3)cc12` [Synthesis Example 351, 2-((2-Carbamoylpyrimidin-4-yl)amino)-N-cyclopropyl-7-hydroxy-4-neopentyl-5-oxo-4,5-dihydropyrazolo[1,5-a]pyrimidine-6-carboxamide], for which the IC50 was determined as 0.9 nM.
Take `CC(C)Cn1c(=O)c(C(=O)NC2CC2)c(O)n2ncc(/C=C/C(=O)N3CCN(C4CC(F)(F)C4)CC3)c12` [compound 460, (E)-N-Cyclopropyl-3-(3-(4-(3,3-difluorocyclobutyl)piperazin-1-yl)-3-oxoprop-1-en-1-yl)-7-hydroxy-4-isobutyl-5-oxo-4,5-dihydropyrazolo[1,5-a]pyrimidine-6-carboxamide]: the IC50 was 1.24 nM.
In the case of `CC(C)Cn1c(=O)c(C(=O)NC2CC2)c(O)n2ncc(/C=C/C(=O)N(C)CC#N)c12` [compound 498, (E)-3-(3-((Cyanomethyl)(methyl)amino)-3-oxoprop-1-en-1-yl)-N-cyclopropyl-7-hydroxy-4-isobutyl-5-oxo-4,5-dihydropyrazolo[1,5-a]pyrimidine-6-carboxamide], the IC50 was 0.72 nM.
`Cc1nn2c(O)c(C(=O)NC3CC3)c(=O)n(CC(C)C)c2c1/C=C/C(=O)N1CCC2CC21` (racemic) [compound 609, (E)-3-(3-(2-Azabicyclo[3.1.0]hexan-2-yl)-3-oxoprop-1-en-1-yl)-N-cyclopropyl-7-hydroxy-4-isobutyl-2-methyl-5-oxo-4,5-dihydropyrazolo[1,5-a]pyrimidine-6-carboxamide (racemate)]: the IC50 stood at 1.23 nM.
`Cc1nn2c(O)c(C(=O)NC3CC3)c(=O)n(CC(C)C)c2c1/C=C/C(=O)N1CCC[C@@H]1c1ccccn1` [Synthesis Example 635, (R,E)-N-Cyclopropyl-7-hydroxy-4-isobutyl-2-methyl-5-oxo-3-(3-oxo-3-(2-(pyridin-2-yl)pyrrolidin-1-yl)prop-1-en-1-yl)-4,5-dihydropyrazolo[1,5-a]pyrimidine-6-carboxamide]: the IC50 turned out to be 1.08 nM.
`CC(C)(C)Cn1c(=O)c(C(=O)NC2CC2)c(O)n2nc(-c3cnccc3C#N)cc12` [Synthesis Example 294, 2-(4-Cyanopyridin-3-yl)-N-cyclopropyl-7-hydroxy-4-neopentyl-5-oxo-4,5-dihydropyrazolo[1,5-a]pyrimidine-6-carboxamide]: the IC50 came out at 2.26 nM.
As for `CC(C)(C)Cn1c(=O)c(C(=O)NC2CC2)c(O)n2nc(-c3cc(F)cnc3N)cc12` [Synthesis Example 285, 2-(2-Amino-5-fluoropyridin-3-yl)-N-cyclopropyl-7-hydroxy-4-neopentyl-5-oxo-4,5-dihydropyrazolo[1,5-a]pyrimidine-6-carboxamide], the IC50 is 3.28 nM.
Same read-out and setting: the result for `CC(C)Cn1c(=O)c(C(=O)NC2CC2)c(O)n2ncc(/C=C/C(=O)N3CCOC[C@@H]3c3ccccc3)c12` [compound 606, (S,E)-N-Cyclopropyl-7-hydroxy-4-isobutyl-5-oxo-3-(3-oxo-3-(3-phenylmorpholino)prop-1-en-1-yl)-4,5-dihydropyrazolo[1,5-a]pyrimidine-6-carboxamide] reads 1.32 nM; that for `CC(C)Cn1c(=O)c(C(=O)NC2CC2)c(O)n2ncc(/C=C/C(=O)N3CC[C@@H](C(N)=O)C3)c12` [compound 513, (R,E)-3-(3-(3-Carbamoylpyrrolidin-1-yl)-3-oxoprop-1-en-1-yl)-N-cyclopropyl-7-hydroxy-4-isobutyl-5-oxo-4,5-dihydropyrazolo[1,5-a]pyrimidine-6-carboxamide], 0.75 nM.
With `CC(C)Cn1c(=O)c(C(=O)NC2CC2)c(O)n2ncc(C3=CCCNC3)c12` [Synthesis Example 239, N-Cyclopropyl-7-hydroxy-4-isobutyl-5-oxo-3-(1,2,5,6-tetrahydropyridin-3-yl)-4,5-dihydropyrazolo[1,5-a]pyrimidine-6-carboxamide hydrochloride], the IC50 was found to be 0.72 nM.
As to `CC(C)Cn1c(=O)c(C(=O)NC2CC2)c(O)n2ncc(/C=C/C(=O)N3CCC[C@H]3C#N)c12` [compound 495, (S,E)-3-(3-(2-Cyanopyrrolidin-1-yl)-3-oxoprop-1-en-1-yl)-N-cyclopropyl-7-hydroxy-4-isobutyl-5-oxo-4,5-dihydropyrazolo[1,5-a]pyrimidine-6-carboxamide], the IC50 is 0.91 nM.
Same read-out and setting: then `Cc1nn2c(O)c(C(=O)NC3CC3)c(=O)n(CC(C)C)c2c1/C=C/C(=O)N1CCC(C(F)(F)F)C1` (stereo not shown) [Synthesis Example 614, (E)-N-Cyclopropyl-7-hydroxy-4-isobutyl-2-methyl-5-oxo-3-(3-oxo-3-(3-(trifluoromethyl)pyrrolidin-1-yl)prop-1-en-1-yl)-4,5-dihydropyrazolo[1,5-a]pyrimidine-6-carboxamide], with 1.49 nM; and `CC(C)Cn1c(=O)c(C(=O)NC2CC2)c(O)n2ncc(/C=C/C(=O)N3CCC[C@@H]3C(F)(F)F)c12` [compound 485, (R,E)-N-Cyclopropyl-7-hydroxy-4-isobutyl-5-oxo-3-(3-oxo-3-(2-(trifluoromethyl)pyrrolidine-1-yl)prop-1-en-1-yl)-4,5-dihydropyrazolo[1,5-a]pyrimidine-6-carboxamide], with 1.1 nM; and `Cc1nnc(/C=C/c2cnn3c(O)c(C(=O)NC4CC4)c(=O)n(CC(C)C)c23)o1` [Synthesis Example 269, (E)-N-Cyclopropyl-7-hydroxy-4-isobutyl-3-(2-(5-methyl-1,3,4-oxadiazol-2-yl)vinyl)-5-oxo-4,5-dihydropyrazolo[1,5-a]pyrimidine-6-carboxamide], with 1.17 nM.

Still in this experiment, the particulars now being: sepiapterin absorbance, Table 41, read-out: concentration at 50% inhibition of human SPR (IC50).
On to `CC(C)Cn1c(=O)c(C(=O)NC2CC2)c(O)n2ncc(/C=C/C(=O)N3CCN(CC4CC(F)(F)C4)C[C@H]3C)c12` [Synthesis Example 745, (R,E)-N-Cyclopropyl-3-(3-(4-((3,3-difluorocyclobutyl)methyl)-2-methylpiperazin-1-yl)-3-oxoprop-1-en-1-yl)-7-hydroxy-4-isobutyl-5-oxo-4,5-dihydropyrazolo[1,5-a]pyrimidine-6-carboxamide], for which the IC50 came out at 1.85 nM.
With `Cc1nn2c(O)c(C(=O)NC3CC3)c(=O)n(CC(C)C)c2c1/C=C/C(=O)N1C[C@@H](F)[C@H](F)C1` (single isomer, unassigned; isomer b) [Synthesis Example 756, N-Cyclopropyl-3-((E)-3-(trans-3,4-difluoropyrrolidin-1-yl)-3-oxoprop-1-en-1-yl)-7-hydroxy-4-isobutyl-2-methyl-5-oxo-4,5-dihydropyrazolo[1,5-a]pyrimidine-6-carboxamide (Isomer B)], the IC50 was 0.71 nM.
As to `CC(C)Cn1c(=O)c(C(=O)NC2CC2)c(O)n2ncc(/C=C/C(=O)N3CCc4cncnc43)c12` [Synthesis Example 724, (E)-N-Cyclopropyl-3-(3-(5,6-dihydro-7H-pyrrolo[2,3-d]pyrimidin-7-yl)-3-oxoprop-1-en-1-yl)-7-hydroxy-4-isobutyl-5-oxo-4,5-dihydropyrazolo[1,5-a]pyrimidine-6-carboxamide], the IC50 came out at 1.03 nM.
